Test results published in the supplement of paper PMC10307832.

These cell lines were tested with C[C@@H](Oc1cc(-c2cnn(C3CCNCC3)c2)cnc1N)c1c(Cl)ccc(F)c1Cl [Crizotinib] + N=C(N)NC(=N)NCCc1ccccc1 [Phenformin] (partner 250 µM) (assay: relative viability (nuclei count vs DMSO), 5 days (fraction); higher = more cells survive). Settings: first compound 0.01 µM.
Procedure, shortened: (§1)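 The day after seeding in 1536-well plates, lung cancer cell lines were treated by pin tool with a single drug, or with a fixed anchor-drug dose together with five library-drug doses (not always all listed) in √10 steps. After 5 days, a combined fix-and-stain solution (final 0.05% Triton X-100, 1% formaldehyde, 1 ug/ml Hoechst) was added. Nuclei counted on 4× images gave relative viability as treated counts over vehicle counts, reported as the median of duplicate plates.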

Cell Line	relative viability
NCI-H3122	0.374
PC-3 [JPC-3]	0.469
PC-14	0.562
SK-LU-1	0.544
SK-MES-1	0.617
SW 1573	0.418
UMC-11	0.259

Same assay, conditions: first compound 0.03162 µM

Cell Line	relative viability
NCI-H3122	0.38
PC-3 [JPC-3]	0.506
PC-14	0.675
RERF-LC-KJ	0.421
SK-LU-1	0.535
SK-MES-1	0.676
SW 1573	0.376
UMC-11	0.339

Same assay, conditions: first compound 0.1 µM

Cell Line	relative viability
NCI-H3122	0.4
PC-3 [JPC-3]	0.482
PC-14	0.642
RERF-LC-KJ	0.409
SK-LU-1	0.506
SK-MES-1	0.638
SW 1573	0.39
UMC-11	0.321

Same assay, conditions: first compound 0.3162 µM

Cell Line	relative viability
NCI-H3122	0.333
PC-3 [JPC-3]	0.452
PC-14	0.526
RERF-LC-KJ	0.435
SK-LU-1	0.499
SK-MES-1	0.645
SW 1573	0.302
UMC-11	0.27

Same assay, conditions: first compound 1 µM

Cell Line	relative viability
NCI-H3122	0.236
PC-3 [JPC-3]	0.482
PC-14	0.522
RERF-LC-KJ	0.409
SK-LU-1	0.547
SK-MES-1	0.593
SW 1573	0.391
UMC-11	0.306

These cell lines were tested with CC(C)C[C@H](NC(=O)[C@H](CCc1ccccc1)NC(=O)CN1CCOCC1)C(=O)N[C@@H](Cc1ccccc1)C(=O)N[C@@H](CC(C)C)C(=O)[C@@]1(C)CO1 [Carfilzomib] + CC(=O)c1c(C)c2cnc(Nc3ccc(N4CCNCC4)cn3)nc2n(C2CCCC2)c1=O [Palbociclib] (partner 0.5 µM) in the same assay as above. Settings: first compound 0.001 µM.
Procedure, shortened: as §1

Cell Line	relative viability
NCI-H3122	0.238
PC-3 [JPC-3]	0.516
PC-14	0.558
RERF-LC-KJ	1.07
SK-LU-1	0.331
SK-MES-1	0.387
SW 1573	0.396
UMC-11	0.378

Same assay, conditions: first compound 0.003162 µM

Cell Line	relative viability
NCI-H3122	0.222
PC-3 [JPC-3]	0.539
PC-14	0.597
RERF-LC-KJ	1.04
SK-LU-1	0.442
SK-MES-1	0.344
SW 1573	0.5
UMC-11	0.325

Same assay, conditions: first compound 0.01 µM

Cell Line	relative viability
NCI-H3122	0.191
PC-3 [JPC-3]	0.564
PC-14	0.437
RERF-LC-KJ	1.27
SK-LU-1	0.336
SK-MES-1	0.34
SW 1573	0.235
UMC-11	0.343

Same assay, conditions: first compound 0.03162 µM

Cell Line	relative viability
NCI-H3122	0.187
PC-3 [JPC-3]	0.502
PC-14	0.05
RERF-LC-KJ	0.837
SK-LU-1	0.266
SK-MES-1	0.282
SW 1573	0.0595
UMC-11	0.343

Same assay, conditions: first compound 0.1 µM

Cell Line	relative viability
NCI-H3122	0.132
PC-3 [JPC-3]	0.333
PC-14	0.0508
RERF-LC-KJ	0.193
SK-LU-1	0.171
SK-MES-1	0.183
SW 1573	0.0481
UMC-11	0.277

Each cell line was assayed with CC(C)C[C@H](NC(=O)[C@H](CCc1ccccc1)NC(=O)CN1CCOCC1)C(=O)N[C@@H](Cc1ccccc1)C(=O)N[C@@H](CC(C)C)C(=O)[C@@]1(C)CO1 [Carfilzomib] + CC1(C)CCC(c2ccc(Cl)cc2)=C(CN2CCN(c3ccc(C(=O)NS(=O)(=O)c4ccc(N[C@H](CCN5CCOCC5)CSc5ccccc5)c(S(=O)(=O)C(F)(F)F)c4)cc3)CC2)C1 [Navitoclax] (partner 0.5 µM) in the same assay as above. Settings: first compound 0.001 µM.
Procedure, shortened: as §1

Cell Line	relative viability
NCI-H3122	1.03
PC-3 [JPC-3]	0.74
PC-14	1
RERF-LC-KJ	0.972
SK-LU-1	0.77
SK-MES-1	1.29
SW 1573	1.06
UMC-11	0.278

Same assay, conditions: first compound 0.003162 µM

Cell Line	relative viability
NCI-H3122	1.07
PC-3 [JPC-3]	0.84
PC-14	1.05
RERF-LC-KJ	1.13
SK-LU-1	0.896
SK-MES-1	1.25
SW 1573	1.11
UMC-11	0.326

Same assay, conditions: first compound 0.01 µM

Cell Line	relative viability
NCI-H3122	1.05
PC-3 [JPC-3]	0.761
PC-14	1.05
RERF-LC-KJ	0.608
SK-LU-1	0.286
SK-MES-1	1.26
SW 1573	0.8
UMC-11	0.332

Same assay, conditions: first compound 0.03162 µM

Cell Line	relative viability
NCI-H3122	0.992
PC-3 [JPC-3]	0.705
PC-14	0.133
RERF-LC-KJ	0.218
SK-LU-1	0.0872
SK-MES-1	0.416
SW 1573	0.0728
UMC-11	0.269

Same assay, conditions: first compound 0.1 µM

Cell Line	relative viability
NCI-H3122	0.672
PC-3 [JPC-3]	0.138
PC-14	0.0977
RERF-LC-KJ	0.252
SK-LU-1	0.0846
SK-MES-1	0.172
SW 1573	0.0538
UMC-11	0.103

What follows are cell lines tested with CC(C)C[C@H](NC(=O)[C@H](CCc1ccccc1)NC(=O)CN1CCOCC1)C(=O)N[C@@H](Cc1ccccc1)C(=O)N[C@@H](CC(C)C)C(=O)[C@@]1(C)CO1 [Carfilzomib] + Nc1ncn([C@H]2C[C@H](O)[C@@H](CO)O2)c(=O)n1 [Decitabine] (partner 2 µM) in the same assay as above. Settings: first compound 0.001 µM.
Procedure, shortened: as §1

Cell Line	relative viability
NCI-H3122	0.451
PC-3 [JPC-3]	0.832
PC-14	0.198
RERF-LC-KJ	0.744
SK-LU-1	0.591
SK-MES-1	0.385
SW 1573	0.551
UMC-11	0.603

Same assay, conditions: first compound 0.003162 µM

Cell Line	relative viability
NCI-H3122	0.441
PC-3 [JPC-3]	0.879
PC-14	0.273
RERF-LC-KJ	0.721
SK-LU-1	0.713
SK-MES-1	0.375
SW 1573	0.52
UMC-11	0.609

Same assay, conditions: first compound 0.01 µM

Cell Line	relative viability
NCI-H3122	0.421
PC-3 [JPC-3]	0.89
PC-14	0.23
RERF-LC-KJ	0.807
SK-LU-1	0.625
SK-MES-1	0.437
SW 1573	0.297
UMC-11	0.54

Same assay, conditions: first compound 0.03162 µM

Cell Line	relative viability
NCI-H3122	0.462
PC-3 [JPC-3]	0.64
PC-14	0.0558
RERF-LC-KJ	0.422
SK-LU-1	0.262
SK-MES-1	0.356
SW 1573	0.0743
UMC-11	0.819

Same assay, conditions: first compound 0.1 µM

Cell Line	relative viability
NCI-H3122	0.216
PC-3 [JPC-3]	0.301
PC-14	0.0667
RERF-LC-KJ	0.207
SK-LU-1	0.23
SK-MES-1	0.181
SW 1573	0.0554
UMC-11	0.459
